From patent publication US20250228865A1, “COMPOUNDS FOR ENHANCING READ THROUGH OF GENES CONTAINING PREMATURE TERMINATION CODONS AND METHODS FOR MAKING AND USING THE SAME” (Sanofi US Services Inc., priority 2022, published 2025)

Experiments:
[1] = system: recombinant human CFTR carrying the premature stop codon (PTC) mutation G542X; test: CFTR-PTC mutant translation readthrough, Nanoluc tagged CFTR luminescence (G542X cell line); type: cell-based; conditions: in combination with G418, G542X cell line; for CFTR G542X ACTIVITY Fold 10 μM G-418: fold over 10 μM G-418; for EC50: 16HBE cells
In short: (§1)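 Readthrough is the 48 h compound-induced luminescence increase scaled to that of maximal G418 (125-250 μM). Compounds run from 50 μM final in 2-fold steps, ±10 μM G418, on 16HBE lines carrying Nanoluc-tagged CFTR G542X (extracellular loop 4 tag) or R1162X (C-terminal tag), with 3 μM VX-809 present.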

[2] = system: recombinant human CFTR carrying the premature stop codon (PTC) mutation R1162X; test: CFTR-PTC mutant translation readthrough, Nanoluc tagged CFTR luminescence (R1162X cell line); type: cell-based; conditions: for CFTR R1162X ACTIVITY Fold 10 μM G-418: fold over 10 μM G-418, in combination with G418; for EC50: in combination with G418, 16HBE cells, read-out: CFTR R1162X ACTIVITY EC50
In short: as §1

| SMILES | CFTR G542X ACTIVITY Fold 10 μM G-418 [1] | EC50 [1] | CFTR R1162X ACTIVITY Fold 10 μM G-418 [2] | EC50 [2] |
| --- | --- | --- | --- | --- |
| O=C1OC(CO)CN1c1ccc(OCc2c(Br)cccc2Br)cc1 (stereo not shown) [3-[4-[(2,6-dibromophenyl)methoxy]phenyl]-5-(hydroxymethyl)oxazolidin-2-one] | A′ (A′ = ≥10X) | 1000 to 10000 nM | A′ (A′ = ≥10X) | 1000 to 10000 nM |
| OC[C@H]1CN(c2ncc(OCc3c(Cl)cccc3Cl)cn2)CCO1 [[(2R)-4-[5-[(2,6-dichlorophenyl)methoxy]pyrimidin-2-yl]morpholin-2-yl]methanol] | A′ (A′ = ≥10X) | 1000 to 10000 nM | A′ (A′ = ≥10X) | 1000 to 10000 nM |
| OCc1cnn(-c2ncc(OCc3c(Cl)cccc3C(F)(F)F)cn2)n1 | A′ (A′ = ≥10X) | < 1000 nM |  | 1000 to 10000 nM |
| Cc1cccc(C(F)(F)F)c1COc1ccc(N2CCOC(CO)C2)nc1 (stereo not shown) | A′ (A′ = ≥10X) | 1000 to 10000 nM | A′ (A′ = ≥10X) | 1000 to 10000 nM |
| Cc1cccc(C(F)(F)F)c1COc1cnc(N2CCC(O)(c3ccccn3)CC2)nc1 | A′ (A′ = ≥10X) | < 1000 nM | A′ (A′ = ≥10X) | 1000 to 10000 nM |
| OCCC1CCN(c2ncc(OCc3c(Cl)cccc3Cl)cn2)CC1 [2-[1-[5-[(2,6-dichlorophenyl)methoxy]pyrimidin-2-yl]-4-piperidyl]ethanol] | A′ (A′ = ≥10X) | < 1000 nM | B′ (B′ = ≥5X to <10X) | 1000 to 10000 nM |
| NC(=O)N1CCN(c2ncc(OCc3c(Cl)cccc3C(F)(F)F)cn2)CC1 | A′ (A′ = ≥10X) | < 1000 nM | A′ (A′ = ≥10X) | < 1000 nM |
| Cc1cccc(C(F)(F)F)c1COc1cnc(N2CCC[C@@H](O)C2)nc1 | A′ (A′ = ≥10X) | < 1000 nM | A′ (A′ = ≥10X) | 1000 to 10000 nM |
| Cc1cccc(C(F)(F)F)c1COc1cnc(N2CCNCC2)nc1 [5-{[2-methyl-6-(trifluoromethyl)phenyl]methoxy}-2-(piperazin-1-yl)pyrimidine] | A′ (A′ = ≥10X) | 1000 to 10000 nM | A′ (A′ = ≥10X) | 1000 to 10000 nM |
| NC(=O)c1ccn(-c2ncc(OCc3c(Cl)cccc3C(F)(F)F)cn2)n1 | A′ (A′ = ≥10X) | < 1000 nM | A′ (A′ = ≥10X) | < 1000 nM |
| Cc1cccc(C(F)(F)F)c1COc1ccc(-n2cc(CO)nn2)cc1 [[1-[4-[[2-methyl-6-(trifluoromethyl)phenyl]methoxy]phenyl]triazol-4-yl]methanol] | A′ (A′ = ≥10X) | 1000 to 10000 nM | A′ (A′ = ≥10X) | 1000 to 10000 nM |
| O=C1OC(CO)CN1c1ccc(OCc2c(Cl)cccc2C(F)(F)F)cn1 (stereo not shown) | A′ (A′ = ≥10X) | < 1000 nM | A′ (A′ = ≥10X) | 1000 to 10000 nM |
| Clc1cccc(Cl)c1COc1cnc(N2CC3CC2CO3)nc1 (stereo not shown) | A′ (A′ = ≥10X) | 1000 to 10000 nM | A′ (A′ = ≥10X) | 1000 to 10000 nM |
| O=C(O)C1CCCN(c2ncc(OCc3c(Cl)cccc3C(F)(F)F)cn2)C1 (stereo not shown) [1-(5-{[2-chloro-6-(trifluoromethyl)phenyl]methoxy]pyrimidin-] |  | 1000 to 10000 nM |  | > 10000 nM |
| CN(CC1CNCCO1)c1ncc(OCc2c(Cl)cccc2Cl)cn1 (stereo not shown) | C′ (C′ = <5X) | 1000 to 10000 nM | C′ (C′ = <5X) | 1000 to 10000 nM |
| NC(=O)CN1CCN(c2ncc(OCc3c(Cl)cccc3Cl)cn2)CC1 [2-[4-[5-[(2,6-dichlorophenyl)methoxy]pyrimidin-2-yl]piperazin-1-yl]acetamide] | B′ (B′ = ≥5X to <10X) | 1000 to 10000 nM | B′ (B′ = ≥5X to <10X) | 1000 to 10000 nM |
| OCCn1ccc(Nc2ccc(OCc3c(Cl)cccc3Cl)cn2)n1 [2-[3-[[5-[(2,6-dichlorophenyl)methoxy]-2-pyridyl]amino]pyrazol-1-yl]ethanol] | A′ (A′ = ≥10X) | 1000 to 10000 nM | A′ (A′ = ≥10X) | 1000 to 10000 nM |
| Cc1cccc(C(F)(F)F)c1COc1cnc(N2CCN(C(N)=O)CC2)nc1 | A′ (A′ = ≥10X) | < 1000 nM | A′ (A′ = ≥10X) | < 1000 nM |
| Cc1cccc(C(F)(F)F)c1COc1cnc(N2CCS(=O)(=O)C(CO)C2)nc1 (stereo not shown) [2-(hydroxymethyl)-4-(5-{[2-methyl-6-(trifluoromethyl)phenyl]] | C′ (C′ = <5X) | 1000 to 10000 nM |  | 1000 to 10000 nM |

| SMILES | CFTR G542X ACTIVITY Fold 10 μM G-418 [1] | EC50 [1] | CFTR R1162X ACTIVITY Fold 10 μM G-418 [2] | EC50 [2] |
| --- | --- | --- | --- | --- |
| OC[C@H]1CN(c2ncc(OCc3c(Cl)cccc3Cl)cn2)C[C@@H](C(F)(F)F)O1 (racemic) | A′ (A′ = ≥10X) | 1000 to 10000 nM | A′ (A′ = ≥10X) | 1000 to 10000 nM |
| Cc1cccc(C(F)(F)F)c1COc1cnc(N2CCC(CO)C2)nc1 (stereo not shown) | A′ (A′ = ≥10X) | < 1000 nM | A′ (A′ = ≥10X) | < 1000 nM |
| Cc1cccc(C(F)(F)F)c1COc1cnc(N2CC[C@@H](C(N)=O)C2)nc1 | A′ (A′ = ≥10X) | 1000 to 10000 nM | A′ (A′ = ≥10X) | 1000 to 10000 nM |
| Cc1ccc(C(F)(F)F)c(COc2ccc(-n3cc(CO)nn3)cc2)c1F | B′ (B′ = ≥5X to <10X) | 1000 to 10000 nM | B′ (B′ = ≥5X to <10X) | > 10000 nM |
| OCc1nc(-c2ccc(OCc3c(Cl)cccc3Cl)cn2)no1 [[3-[5-[(2,6-dichlorophenyl)methoxy]-2-pyridyl]-1,2,4-oxadiazol-5-yl]methanol] | A′ (A′ = ≥10X) | 1000 to 10000 nM | A′ (A′ = ≥10X) | 1000 to 10000 nM |
| Cc1cccc(C(F)(F)F)c1COc1cnc(N2CCC(O)CC2)nc1 [1-[5-[[2-methyl-6-(trifluoromethyl)phenyl]methoxy]pyrimidin-2-yl]piperidin-4-ol] | A′ (A′ = ≥10X) | < 1000 nM | A′ (A′ = ≥10X) | < 1000 nM |
| CC(C)C1NC(=O)N(c2ncc(OCc3c(Cl)cccc3Cl)cn2)C1=O (stereo not shown) | A′ (A′ = ≥10X) | > 10000 nM | B′ (B′ = ≥5X to <10X) | > 10000 nM |
| NC(=O)C1CN(c2ncc(OCc3c(Cl)cccc3C(F)(F)F)cn2)CC(=O)N1 (stereo not shown) | C′ (C′ = <5X) | 1000 to 10000 nM | C′ (C′ = <5X) | 1000 to 10000 nM |
| OCC1CN(c2ncc(OCc3c(Cl)cccc3Cl)cn2)CCN1 (stereo not shown) [[4-[5-[(2,6-dichlorophenyl)methoxy]pyrimidin-2-yl]piperazin-2-yl]methanol] | A′ (A′ = ≥10X) | 1000 to 10000 nM | A′ (A′ = ≥10X) | 1000 to 10000 nM |
| OCc1ncn(-c2ncc(OCc3c(Cl)cccc3Cl)cn2)n1 | C′ (C′ = <5X) | 1000 to 10000 nM | C′ (C′ = <5X) | 1000 to 10000 nM |
| Cc1cccc(C)c1COc1ccc(-n2ccc(CO)n2)nc1 [[1-[5-[(2,6-dimethylphenyl)methoxy]-2-pyridyl]pyrazol-3-yl]methanol] | A′ (A′ = ≥10X) | 1000 to 10000 nM | A′ (A′ = ≥10X) | 1000 to 10000 nM |
| CC1CN(c2ncc(OCc3c(Cl)cccc3Cl)cn2)CCN1C(N)=O (stereo not shown) | A′ (A′ = ≥10X) | < 1000 nM | A′ (A′ = ≥10X) | < 1000 nM |
| Cc1cccc(C(F)(F)F)c1COc1cnc(N2CCN3C(=O)COCC3C2)nc1 (stereo not shown) | A′ (A′ = ≥10X) | < 1000 nM | A′ (A′ = ≥10X) | < 1000 nM |
| NC[C@H]1CN(c2ncc(OCc3c(Cl)cccc3Cl)cn2)CCO1 | A′ (A′ = ≥10X) | < 1000 nM | A′ (A′ = ≥10X) | 1000 to 10000 nM |
| COc1cccc(Br)c1COc1ccc(N2CC(CO)OC2=O)cc1 (stereo not shown) | A′ (A′ = ≥10X) | > 10000 nM | B′ (B′ = ≥5X to <10X) | > 10000 nM |
| CN(C)CC1CN(c2ncc(OCc3c(Cl)cccc3Cl)cn2)CCO1 (stereo not shown) | A′ (A′ = ≥10X) | > 10000 nM | B′ (B′ = ≥5X to <10X) | > 10000 nM |
| CN(C(N)=O)c1ncc(OCc2c(Cl)cccc2Cl)cn1 [1-[5-[(2,6-dichlorophenyl)methoxy]pyrimidin-2-yl]-1-methyl-urea] | A′ (A′ = ≥10X) | 1000 to 10000 nM | A′ (A′ = ≥10X) | 1000 to 10000 nM |
| [2H]C([2H])(O)c1ncn(-c2ccc(OC([2H])([2H])c3c(Cl)cccc3C(F)(F)F)cc2)n1 | C′ (C′ = <5X) | < 1000 nM | C′ (C′ = <5X) | < 1000 nM |
| OC[C@@H]1CN(c2ncc(OCc3c(Cl)cccc3Cl)cn2)CCO1 [[(2S)-4-[5-[(2,6-dichlorophenyl)methoxy]pyrimidin-2-yl]morpholin-2-yl]methanol] | A′ (A′ = ≥10X) | < 1000 nM | A′ (A′ = ≥10X) | < 1000 nM |
